Where a name gives a salt, the structure may show the parent alone. Read-outs that look alike come from different tables or passages of the source.
How the values were obtained:
[1] = test system: mixture of Pseudomonas aeruginosa, Klebsiella pneumoniae, Staphylococcus aureus, and Bacillus subtilis; test: Growth Inhibition Assay (microtiter plate, OD580); format: cell-based; details: for inhibition at 0.39 µg/mL / inhibition at 0.78 µg/mL / inhibition at 1.56 µg/mL / inhibition at 3.13 µg/mL / inhibition at 6.25 µg/mL / inhibition at 12.5 µg/mL / inhibition at 25 µg/mL: 24 h
Description: Regardless of the mechanism of action, the impact of a biocide (or combination of biocides) can be measured over time on the basis of an increase in the size of the community.
The assay measures the efficacy of one or more biocides at preventing growth of a consortium of bacteria in a dilute mineral salts medium. The medium contains (in mg/l) the following components: FeCl3.6H2O (1); CaCl2.2H2O (10); MgSO4.7H2O (22.5); (NH4)2SO4 (40); KH2PO4 (10); K2HPO4 (25.5); Yeast Extract (10); and glucose (100). After all components are added to deionized water, the pH of the medium is adjusted to 7.5. Following filter sterilization, aliquots are dispensed in 100 ul quantities to sterile microtiter plate wells. Dilutions of DBMAL and/or “Biocide B” are then added to the microtiter plate. After preparing the combinations of actives as illustrated below, each well is inoculated with 100 μl of a cell suspension containing ca. 1×10^6 cells per milliliter of a mixture of Pseudomonas aeruginosa, Klebsiella pneumoniae, Staphylococcus aureus, and Bacillus subtilis. The final total volume of medium in each well is 300 μl. Once prepared as described herein, the concentration of each active ranges from 25 ppm to 0.195 ppm as illustrated in Table 1. The resulting matrix allows testing of eight concentrations of each active and 64 combinations of actives in the ratios (of actives).
Controls (not shown) contain the medium with no biocide added. After preparing the combinations of actives as illustrated above, each well is inoculated with 100 μl of a cell suspension containing ca. 1×10^6 cells per milliliter of a mixture of Pseudomonas aeruginosa, Klebsiella pneumoniae, Staphylococcus aureus, and Bacillus subtilis. The final total volume of medium in each well is 300 μl.
Immediately after the microtiter plates are prepared, the optical density (OD) readings for each well is measured at 580 nm and the plates are then incubated at 37° C. for 24 hr. After the incubation period, the plates are gently agitated before OD580 values are collected. The OD580 values at T0 are subtracted from T24 values to determine the total amount of growth (or lack thereof) that occurs. These values are used to calculate the percent inhibition of growth caused by the presence of each biocide and each of the 64 combinations.
where • CDBMAL: Concentration of DBMAL required to inhibit ˜90% of bacterial growth when used alone • CB: Concentration of biocide (B) required to inhibit ˜90% of bacterial growth when used alone. • MDBMAL: Concentration of DBMAL required to inhibit ˜90% of bacterial growth when used in combination with biocide (B). • MB: Concentration of biocide (B) required to inhibit ˜90% of bacterial growth when used in combination with DBMAL The SI values are interpreted as follows: • SI<1: Synergistic • SI=1: Additive • SI>1: Antagonistic
In the Examples below, the amounts of biocides in the solution are measured in mg per liter of solution (mg/l). Since solution densities are approximately 1.00, the mg/l measurement corresponds to weight ppm. Both units may therefore be used interchangeably in the Examples.

[2] = test system: mixture of Pseudomonas aeruginosa ATCC 10145 and Staphylococcus aureus ATCC 6538; test: Kill Assay (minimum biocide concentration, MBC); format: cell-based; details: 2 h
Experimental: Kill Assay. This assay is used as a preliminary evaluation of synergy between the actives. The procedure is as follows. A mineral salts solution (0.2203 g of CaCl2, 0.1847 g of MgSO4, and 0.2033 g of NaHCO3 in 1 L water, approximately pH 8) is inoculated with equal amounts (about 10^7CFU/ml) of a mixture of Pseudomonas aeruginosa ATCC 10145 and Staphylococcus aureus ATCC 6538. Aliquots of the cell suspension are then treated with 2,2-dibromomalonamide (“DBMAL”), a surface active biocide, and their combinations at various concentration levels. […] The MBC values are then used to calculate a synergy index (SI) values. Summaries of the kill assay results are presented in the individual Examples. In each table, MBC values for each biocide and the blends tested are presented. Likewise, the Synergy Index (“SI”) values for the combinations are listed. SI is calculated with the following equation: Synergy Index=Ca/CA+Mb/CB where • Ca: Concentration of biocide A required for complete bacterial kill when used in combination with biocide B • CA: Concentration of biocide A required for complete bacterial kill when used alone • Cb: Concentration of biocide B required for complete bacterial kill when used in combination with biocide A • CB: […] Antagonistic

[3] = read-out: % Inhibition of growth by DDMAC
[4] = read-out: % Inhibition of growth by DGH

NC(=O)C(Br)(Br)C(N)=O [DBMAL, 2,2-dibromomalonamide]
inhibition at 0.39 µg/mL ([1]; DBMAL alone 0.39 mg/l, 24 hr (Table 3), read-out: % Inhibition of growth by DBMAL): 28% | inhibition at 0.39 µg/mL ([1]; DBMAL alone 0.39 mg/l, 24 hr (Table 7), read-out: % Inhibition of growth by DBMAL): 19% | inhibition at 0.78 µg/mL ([1]; DBMAL alone 0.78 mg/l, 24 hr (Table 3), read-out: % Inhibition of growth by DBMAL): 34% | inhibition at 0.78 µg/mL ([1]; DBMAL alone 0.78 mg/l, 24 hr (Table 5), read-out: % Inhibition of growth by DBMAL): 3% | inhibition at 0.78 µg/mL ([1]; DBMAL alone 0.78 mg/l, 24 hr (Table 7), read-out: % Inhibition of growth by DBMAL): 14% | inhibition at 1.56 µg/mL ([1]; DBMAL alone 1.56 mg/l, 24 hr (Table 3), read-out: % Inhibition of growth by DBMAL): 26% | inhibition at 1.56 µg/mL ([1]; DBMAL alone 1.56 mg/l, 24 hr (Table 7), read-out: % Inhibition of growth by DBMAL): 8% | inhibition at 3.13 µg/mL ([1]; DBMAL alone 3.13 mg/l, 24 hr (Table 3), read-out: % Inhibition of growth by DBMAL): 1% | inhibition at 3.13 µg/mL ([1]; DBMAL alone 3.13 mg/l, 24 hr (Table 5), read-out: % Inhibition of growth by DBMAL): 1% | inhibition at 3.13 µg/mL ([1]; DBMAL alone 3.13 mg/l, 24 hr (Table 7), read-out: % Inhibition of growth by DBMAL): 10% | inhibition at 6.25 µg/mL ([1]; DBMAL alone 6.25 mg/l, 24 hr (Table 5), read-out: % Inhibition of growth by DBMAL): 5% | inhibition at 6.25 µg/mL ([1]; DBMAL alone 6.25 mg/l, 24 hr (Table 7), read-out: % Inhibition of growth by DBMAL): 16% | inhibition at 6.25 µg/mL ([1]; DBMAL alone 6.25 mg/l, 24 hr (Table 9), read-out: % Inhibition of growth by DBMAL): 18% | MBC ([2]; read-out: MBC, 1st biocide DBMAL): 66.7 µg/mL

CCCCCCCC[N+](C)(C)CCCCCCCC.[Cl-] [DDAC, dioctyl dimethyl ammonium chloride]
MBC ([2]; read-out: MBC, 2nd biocide DDAC): > 150 µg/mL

CCCCCCCCCC[N+](C)(C)CCCCCCCCCC [DDMAC, didecyldimethyl ammonium chloride]
inhibition at 0.39 µg/mL [1, 3]: 12% | inhibition at 0.78 µg/mL [1, 3]: 23% | inhibition at 1.56 µg/mL [1, 3]: 26% | inhibition at 3.13 µg/mL [1, 3]: 46% | inhibition at 6.25 µg/mL [1, 3]: 100% | inhibition at 12.5 µg/mL [1, 3]: 100% | inhibition at 25 µg/mL [1, 3]: 100%

CCCCCCCCCCCCNC(=N)N [DGH, dodecylguanidine hydrochloride]
inhibition at 0.39 µg/mL [1, 4]: 3% | inhibition at 0.78 µg/mL [1, 4]: 0% | inhibition at 1.56 µg/mL [1, 4]: 0% | inhibition at 3.13 µg/mL [1, 4]: 3% | inhibition at 6.25 µg/mL [1, 4]: 52% | inhibition at 12.5 µg/mL [1, 4]: 100% | inhibition at 25 µg/mL [1, 4]: 100%

C12-C16 alkyl dimethyl benzyl ammonium chloride [ADBAC]
% Inhibition of growth by ADBAC ([1]; ADBAC alone 0.78 mg/l, 24 hr): 6% | % Inhibition of growth by ADBAC ([1]; ADBAC alone 1.56 mg/l, 24 hr): 50% | 90% inhibition of growth concentration (I90) ([1]; single active, 24 hr): 3.13 mg/L
